Laboratory results taken from paper PMC7608467 (Acta Pharmacologica Sinica, 2020).

Columns and labels:
[1] = target: human relaxin/insulin-like family peptide receptor 4 (RXFP4) on CHO-K1 cells (human) (UniProt Q8TDU9)
mouse RXFP4 (mRXFP4) = target: T1, mouse RXFP4 (mRXFP4) (Mus musculus, UniProt Q7TQP4); assay: inhibition of forskolin-stimulated cAMP accumulation, TR-FRET; format: cell-based; conditions: agonist; 500 nM forskolin, 500 uM IBMX, 40 min, RT
T1 sequence (Q7TQP4 1-414): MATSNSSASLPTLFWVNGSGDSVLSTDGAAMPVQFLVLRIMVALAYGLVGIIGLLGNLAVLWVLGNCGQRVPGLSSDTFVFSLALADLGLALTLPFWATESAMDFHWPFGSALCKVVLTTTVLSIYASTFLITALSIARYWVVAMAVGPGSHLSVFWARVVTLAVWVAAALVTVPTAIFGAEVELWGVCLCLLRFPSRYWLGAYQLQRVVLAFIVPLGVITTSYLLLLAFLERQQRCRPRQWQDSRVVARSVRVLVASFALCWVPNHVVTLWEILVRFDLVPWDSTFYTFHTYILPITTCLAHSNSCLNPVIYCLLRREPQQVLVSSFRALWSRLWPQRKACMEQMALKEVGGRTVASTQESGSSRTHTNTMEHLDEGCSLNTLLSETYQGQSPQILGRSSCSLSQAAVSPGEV

human RXFP4 (hRXFP4) [2] = target: T2, human RXFP4 (hRXFP4) (Homo sapiens, UniProt Q8TDU9); assay: as above; format: cell-based; conditions: agonist; 500 nM forskolin, 500 uM IBMX, 40 min, RT
human RXFP4 (hRXFP4) [3] = target: T2, human RXFP4 (hRXFP4); assay: Eu-mINSL5 competition binding, time-resolved fluorescence, CHO-RXFP4 cells; format: cell-based; conditions: n = 3; one-site fit; competitive with Eu-labelled INSL5

Sequence of human relaxin/insulin-like family peptide receptor 4 (RXFP4) on CHO-K1 cells (human) (Q8TDU9 whole entry): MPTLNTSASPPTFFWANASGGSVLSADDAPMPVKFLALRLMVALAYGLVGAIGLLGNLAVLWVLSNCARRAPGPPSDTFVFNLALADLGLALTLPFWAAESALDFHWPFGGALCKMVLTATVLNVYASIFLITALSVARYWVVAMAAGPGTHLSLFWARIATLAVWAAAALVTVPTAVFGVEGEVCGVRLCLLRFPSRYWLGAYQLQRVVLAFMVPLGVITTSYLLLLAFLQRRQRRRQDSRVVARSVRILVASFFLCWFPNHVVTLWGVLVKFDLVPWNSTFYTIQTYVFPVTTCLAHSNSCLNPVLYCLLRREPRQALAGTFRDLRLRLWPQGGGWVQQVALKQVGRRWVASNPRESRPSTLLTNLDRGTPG
T2 sequence (Q8TDU9 whole entry): as above
Sequence of Human INSL5 (insulin-like peptide 5) (ligand) (Q9Y5Q6 23-135): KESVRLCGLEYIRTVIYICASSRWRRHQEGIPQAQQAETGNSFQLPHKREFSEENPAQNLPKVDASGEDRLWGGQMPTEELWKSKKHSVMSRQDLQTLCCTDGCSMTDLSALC

pEC50, inhibition of forskolin-stimulated cAMP production in hRXFP4-CHO cells [1]	pEC50 (mouse RXFP4 (mRXFP4))	pEC50 (human RXFP4 (hRXFP4) [2])	pKi (human RXFP4 (hRXFP4) [3])	Molecule
8.12				Human INSL5 (insulin-like peptide 5) (ligand)
	4.60 ± 0.07 -log M	4.76 ± 0.04 -log M	4.48 ± 0.09 -log M	O=C1CCCC2=C1[C@H](c1ccc(O)cc1)n1nc(-c3ccccc3Cl)nc1N2 [JK1]
7.52				R3/I5 (ligand)
